Measurements from PubChem BioAssay (NCI).
Values joined by “and” are separate entries in the source; they are usually repeats but may differ in a detail not shown here. Identical values can stand only once.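 Values below derive from 48-hour exposures of cells grown in 96-well plates, with endpoints linearly interpolated between the two concentrations bracketing the appropriate inhibition level. GI50 marks 50% less growth. TGI: total growth inhibition.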

Columns and labels:
Experiment in all cases: inhibition of tumour cell growth, NCI panel, 48 h
XF 498 CNS = system: XF 498 CNS
DLD-1 colon = system: DLD-1 colon
M19-MEL melanoma = system: M19-MEL melanoma
SNB-78 CNS = system: SNB-78 CNS
HOP-18 NSCLC = system: HOP-18 NSCLC
DMS 273 small cell lung = system: DMS 273 small cell lung
KM20L2 colon = system: KM20L2 colon
MDA-N = system: MDA-N
RXF-631 renal = system: RXF-631 renal

| SMILES | TGI (XF 498 CNS) | TGI (DLD-1 colon) | TGI (M19-MEL melanoma) | TGI (SNB-78 CNS) | TGI (HOP-18 NSCLC) | TGI (DMS 273 small cell lung) | TGI (KM20L2 colon) | TGI (MDA-N) | other results |
| --- | --- | --- | --- | --- | --- | --- | --- | --- | --- |
| CC1=C(C(=O)Nc2ccccc2C)C(c2ccc(C3C(C(=O)Nc4ccccc4C)=CNC=C3C(=O)Nc3ccccc3C)cc2)C(C(=O)Nc2ccccc2C)=C(C)N1 | 41.6 µM | 37.4 µM | > 57.3 µM | 96.4 µM | > 76 µM | 47.3 µM | 28.6 µM |  |  |
| CC1CCC23COC(=O)C2C(O)CCC3C1(C)CC(O)c1ccoc1 (centres undefined) | > 100 µM | > 100 µM | > 100 µM | > 100 µM | > 100 µM |  | > 100 µM |  |  |
| O=C1C(N2C(=O)c3ccccc3C2=O)CN1C(COCc1ccccc1)c1ccc(OCc2ccccc2)cc1 (centres undefined) | > 100 µM | > 100 µM | > 100 µM | > 100 µM |  | > 100 µM | > 100 µM |  |  |
| O=[N+]([O-])c1ccc(-c2cn(-c3ccc(Cl)cc3)cn2)cc1 |  |  |  |  |  |  |  | > 100 µM |  |
| CN(C)CCC1(C2=CCCC2)CC/C(=C\c2ccccc2)C1=O (centres undefined) |  | 37.5 µM | 28.5 µM | 46.2 µM | 29.2 µM | 29 µM | 26 µM |  |  |
| O=c1[nH]c(/C=C(\O)c2ccncc2)nc2ccccc12 |  | > 100 µM | > 100 µM | > 100 µM |  |  |  |  |  |
| COC(=O)C(Cc1nc2ccccc2[nH]c1=O)C(=O)C(=O)Nc1ccc(OC)cc1[N+](=O)[O-] (centres undefined) | > 100 µM |  | > 100 µM | > 100 µM |  |  | > 100 µM |  |  |
| O=c1/c(=C/c2ccc3c(c2)OCO3)sc2nnc(-c3ccco3)n12 | > 100 µM | > 100 µM | > 100 µM | > 100 µM | > 100 µM | > 100 µM | > 100 µM |  |  |
| C=C1C(=O)OC2/C=C(\C)C3OC3/C=C(/C(=O)OC)C(OC(C)=O)C(OC(=O)C(C)(O)C(C)OC(C)=O)C12 (centres undefined) | 5.6 µM | 7.52 µM | 22.4 µM | 12.4 µM |  | 10.6 µM |  | 69.1 µM | TGI (RXF-631 renal): 19.6 µM |
| CN(C)/C=N/c1nc2ncn(CCOC(=O)c3ccccc3)c2c(=O)[nH]1 |  | > 100 µM | > 100 µM | > 100 µM | > 100 µM | > 100 µM | > 100 µM |  | TGI (RXF-631 renal): > 100 µM |
| CCSc1nc2n(c(=S)n1)CCN2C |  |  | 29.4 µM |  |  | 33.6 µM | 52.9 µM |  |  |
| CC(Oc1ccc2cc(C(=O)c3ccccc3)c(=O)oc2c1)C(=O)O (centres undefined) | > 100 µM |  | > 100 µM | > 100 µM | > 100 µM |  | > 100 µM |  | TGI (RXF-631 renal): > 100 µM |
| O=C1OC2C(O)C(=O)OC2C1O (centres undefined) |  |  |  |  |  |  |  | > 100 µM |  |
| Cc1cc2c(cc1C)[n+](=O)c(C(=O)/C=C/c1ccccc1Cl)c(C)n2[O-] | 42.1 µM | 42.1 µM | > 100 µM | > 100 µM | > 100 µM | > 100 µM | > 100 µM |  | TGI (RXF-631 renal): 84.9 µM |
| COC(=O)C1C2CCCN2OC1(C)CO (centres undefined) |  |  |  |  |  |  |  | > 100 µM |  |
| COc1ccc(C(=O)O)c(Cc2ccc3ccccc3c2)c1 | > 100 µM | > 100 µM | > 100 µM | > 100 µM | > 100 µM | > 100 µM | > 100 µM |  |  |
| O=C(O)/C=C\C(=O)Nc1ccc2c(c1)C(=O)c1cc(F)ccc1-2 |  |  |  |  |  |  |  | > 100 µM |  |
| CC(=O)OCC1OC(n2c(-c3ccccc3)c(C)c(C)c(C#N)c2=S)C(OC(C)=O)C(OC(C)=O)C1OC(C)=O (centres undefined) |  |  |  |  |  |  |  | > 50 µM and 56.6 µM |  |
| CC([O-])C(=O)[O-].NCC1CCC1CN.[Pt+4] (centres undefined) |  |  |  |  |  |  |  | > 10 µM | GI50 (MDA-N): > 10 µM |
| O=C([O-])c1ccccc1Nc1ccccc1[O-].[Ni+3].[OH3+].[OH3+].[OH3+] |  | > 100 µM | > 100 µM | > 100 µM |  |  |  |  | GI50 (DLD-1 colon): > 100 µM; GI50 (M19-MEL melanoma): > 100 µM; GI50 (SNB-78 CNS): > 100 µM |
| CN1CCCCC1CCN1c2ccccc2Sc2ccc(S(C)=O)cc21 (centres undefined) |  |  |  |  |  |  |  | > 100 µM |  |
| CC1(C)OC(=O)C(=C2CC(c3ccccc3)c3ccccc32)C(=O)O1 (centres undefined) |  | > 100 µM | > 100 µM | > 100 µM | > 100 µM |  | > 100 µM |  | TGI (RXF-631 renal): > 100 µM |

| SMILES | TGI (XF 498 CNS) | TGI (DLD-1 colon) | TGI (M19-MEL melanoma) | TGI (SNB-78 CNS) | TGI (HOP-18 NSCLC) | TGI (DMS 273 small cell lung) | TGI (KM20L2 colon) | TGI (MDA-N) | other results |
| --- | --- | --- | --- | --- | --- | --- | --- | --- | --- |
| Cc1cc2c(c(N)c1C)C(=O)c1ccccc1C2=O |  | > 100 µM | > 100 µM | > 100 µM | 56 µM | > 100 µM | > 100 µM |  |  |
| CCC/C(=N\NC(=O)c1cc2ccccc2cc1O)C(CC)C(=O)CCC(=O)N(Cc1ccccc1)Cc1ccccc1 (centres undefined) |  | > 100 µM | 48.6 µM | > 100 µM | 91.1 µM | 52.8 µM | > 100 µM |  | TGI (RXF-631 renal): > 100 µM |
| CCN(CC(COc1ccc2c(c1)[n+]([O-])nc(N)[n+]2[O-])OC(C)=O)C(C)=O (centres undefined) |  |  |  |  |  |  |  | > 100 µM |  |
| S=C(N/N=C(/c1ccccc1)c1ccccn1)Nc1cccc(Cl)c1 |  |  |  |  |  |  |  | 7.35 µM and 6.85 µM | GI50 (MDA-N): 1.14 µM |
| ClC[Si]12OCCN(CCO1)CCO2 |  | > 100 µM |  | > 100 µM | > 100 µM | > 100 µM |  |  | TGI (RXF-631 renal): > 100 µM |
| O=C(O)C1OC(Oc2cc(O)c3c(=O)cc(-c4ccc(O)cc4)oc3c2)C(O)C(O)C1O (centres undefined) | 83 µM | > 100 µM | > 100 µM | > 100 µM |  | > 100 µM | > 100 µM |  |  |
| Cc1nc2cc(N)c(Cl)cc2[nH]1 |  |  |  |  |  |  |  | > 100 µM |  |
| CC1=C(c2cc(C(=O)Nc3nccs3)nc(NC#N)n2)Sc2ccccc2N1 | > 100 µM | > 100 µM | > 100 µM |  | > 100 µM | > 100 µM | > 100 µM |  | TGI (RXF-631 renal): > 100 µM |
| COc1ccc(C#CCC(OC2OC(CO)C(O)C(O)C2O)C(O)c2ccc(OC)c(OC)c2)cc1OC (centres undefined) |  | > 100 µM |  | > 100 µM | > 100 µM | > 100 µM | > 100 µM |  |  |
| COc1ccc(-c2coc3cc(OC)cc(O)c3c2=O)cc1 |  |  |  |  |  |  |  | > 100 µM |  |
| CCC(/C(=N\Nc1c(Cl)cc(Cl)cc1Cl)c1ccccc1)n1ccnc1C (centres undefined) |  | 17.2 µM | 29.7 µM | 42.2 µM | 30.1 µM | 19.7 µM | 17.5 µM |  | TGI (RXF-631 renal): 25 µM |
| CC(C)CC(=O)NS(=O)(=O)c1ccccc1 | > 100 µM | > 100 µM | > 100 µM | > 100 µM | > 100 µM |  | > 100 µM |  | TGI (RXF-631 renal): > 100 µM |
| Oc1cc2c(cc1O)-c1[nH]ncc1CC2 | 86.7 µM | > 100 µM | > 100 µM | > 100 µM | 61.8 µM | > 100 µM | > 100 µM |  |  |
| CCN(CC)CC(O)C1CCC(c2ccccc2)CC1 (centres undefined) |  |  |  |  |  |  |  | 41.8 µM |  |
| CC(=O)c1ccc(NCN2C(=O)c3ccccc3C2=O)cc1 |  |  |  |  |  |  |  | > 100 µM |  |
| O=C(c1ccc2c3c(ccc(C(=O)C(F)(F)F)c13)CC2)C(F)(F)F | 50.2 µM | > 100 µM | > 100 µM | > 100 µM | > 100 µM | > 100 µM | > 100 µM |  |  |
| CCN(CC)CCOc1ccc(C(=C2CCCCC2)c2ccc(OCCN(CC)CC)cc2)cc1 | 2.29 µM | 4.52 µM | 3.08 µM |  | 8.01 µM | 2.93 µM | 2.55 µM |  | TGI (RXF-631 renal): 2.82 µM |
| CC(=O)OCC1OC(Sc2ccccn2)C=CC1OC(C)=O (centres undefined) | > 100 µM | > 100 µM | > 100 µM |  | > 100 µM | > 100 µM | > 100 µM |  |  |
| Cn1c(=S)sc2nc3ccccc3n2c1=S |  |  |  |  |  |  |  | 38.5 µM |  |
| O=C1c2ccccc2C(=O)c2c1ccc1c2OCO1 |  |  |  |  |  |  |  | > 100 µM |  |
| Cc1cccc(NC(=O)CC#N)c1Cl | > 100 µM | > 100 µM | > 100 µM | > 100 µM |  | > 100 µM | > 100 µM |  |  |
